Test results published in patent US20040133008A1, “Amide compounds” (FUJISAWA PHARMACEUTICAL CO., LTD., priority 2002, published 2004).

Key:
[1] = tested on: Apo B secretion; assay: Measurement of Inhibition of Apo B Secretion; type: cell-based; settings: Homo sapiens; HepG2 cells, 10^−8 M test compound, 15-hour incubation, Apo B in media by ELISA, 0.1% DMSO treated cells as controls
Method: Test 1: Measurement of Inhibition of Apo B Secretion
HepG2 cells were seeded in Eagles medium containing 10% fetal calf serum (FCS) at a density of 30000 cells/well in 96-well plates and allowed to grow for 3 days before treatment. At this time, the medium was replaced with fresh medium containing 0.1% dimethyl sulfoxide (DMSO) and the indicated concentrations of a test compound. After 15-hour incubation, the amount of Apo B and Apo AI accumulated in the media was determined by ELISA.
The assay was carried out at ambient temperature. A flat bottomed micro ELISA plate (manufactured by Nunc) was coated with an anti Apo B monoclonal antibody solution ([…] in 0.05% carbonate buffer, pH 9.6) by adding the antibody solution at a volume of 100 μl per well. After 1-hour incubation on a plate mixer, the unbound materials were removed by washing the well 3 times with a washing buffer (phosphate buffered saline, pH 7.2 containing 0.1% bovine serum albumin and 0.05% Tween-20). Then 20 μl of […] and 100 μl of a solution of peroxidase coupled anti Apo B antibody were added. After 1-hour incubation on a plate mixer, washing was performed 3 times to remove the unbound materials. A freshly prepared substrate solution (2.5 mg/ml ortho-phenylene diamine and 0.018% H2O2 in 0.11 M Na2HPO4-0.044 M sodium citrate buffer, pH 5.4) at a volume of 200 μl was then added to each well. After 20-minute incubation, the enzyme reaction was terminated by adding 50 μl of 0.5 M sulfuric acid. Absorbance of each well was determined at 490 nm using a microplate reader. Apo B concentration was calculated from a standard curve generated from purified Apo B standard that was run in parallel in the same plate. Inhibition of Apo B secretion by the test compound was calculated taking 0.1% DMSO treated cells as controls.
Measurement of Apo AI was performed similar to that of Apo B, except for diluting the sample 11-fold with a dilution buffer (phosphate buffered saline, pH 7.2 containing 0.5% bovine serum albumin and 0.05% Tween-20).
Apo B secretion inhibitors are identified as compounds that decrease Apo B secretion without affecting the secretion of Apo AI.

[2] = tested on: ddY-mice; assay: Lipid Lowering Effect on ddY-Mice; type: in vivo; settings: male ddY-mice, dose 0.32 mg/kg orally in olive oil, plasma TG 2 hours after administration; (TG increase in drug treated group/TG increase in control group)×100
Method: Test 2: Lipid Lowering Effect on ddY-Mice
Male ddY-mice were housed in temperature- and humidity-controlled rooms and fed with laboratory chow. The animals were randomized according to their body weight and food was deprived about 16 hours before experiment. Baseline blood sample was collected from the retro orbital venous plexus then the animals were orally dosed with drugs in olive oil (10 ml/kg). For control group, 10 ml/kg of olive oil was loaded orally. Blood samples were drawn at 2 hours after drug administration for the measurement of triglyceride (TG) elevation. Plasma TG was determined by conventional enzyme method (The triglyceride E-test Wako).
Lipid lowering effects were shown in percent of the TG increase in drug treated group, relative to the TG increase in control group.
Lipid lowering effect(%)=(TG increase in drug treated group/TG increase in control group)×100

Row | Compound | inhibition at 0.01 µM [1] [%] | TG increase relative to control (%) [2] [%]
1 | CC1CCN(c2ncccc2C(=O)Nc2ccc(NCCc3ccccn3)cc2)CC1 [Example 54, 2-(4-Methyl-1-piperidinyl)-N-(4-{[2-(2-pyridinyl)ethyl]amino}phenyl)nicotinamide] | 86.3 | 28
2 | Cc1ccc(C(=O)Nc2ccc(NC(=O)Cn3cccn3)cc2)c(N2CCC(C)CC2)n1 [Example 193, 6-methyl-2-(4-methyl-1-piperidinyl)-N-{4-[(1H-pyrazol-1-ylacetyl)amino]phenyl}nicotinamide] | 71.5 | 
3 | Cc1ccc(C(=O)Nc2ccc(NC(=O)C(C)c3ccccn3)cc2)c(N2CCC(C)CC2)n1 (centres unmarked) [Example 415, 6-Methyl-2-(4-methyl-1-piperidinyl)-N-(4-{[2-(2-pyridinyl)propanoyl]amino}phenyl)nicotinamide] | 76.2 | 
4 | Cc1ccc(C(=O)Nc2ccc(NCCc3ccccn3)cc2)c(N(C)C)c1 [Example 42, 2-(Dimethylamino)-4-methyl-N-(4-{[2-(2-pyridinyl)ethyl]amino}phenyl)benzamide] | 85.8 | 33
5 | CCc1ccc(C(=O)Nc2ccc(NCCn3cccn3)cc2)c(N(C)C)c1 [Example 473, 2-(Dimethylamino)-4-ethyl-N-(4-{[2-(1H-pyrazol-1-yl)ethyl]amino}phenyl)benzamide] | 75.7 | 
6 | CN(C)c1cc(Cl)ccc1C(=O)Nc1ccc(NCCc2cccc(N)n2)cc1 [Example 435, N-(4-{[2-(6-Amino-2-pyridinyl)ethyl]amino}phenyl)-4-chloro-2-(dimethylamino)benzamide] | 85.9 | 52
7 | Cc1ccc(C(=O)Nc2ccc(NCCn3cccn3)cc2)c(N(C)C)c1 [Example 183, 2-(dimethylamino)-4-methyl-N-(4-{[2-(1H-pyrazol-1-yl)ethyl]amino}phenyl)benzamide] | 81.2 | 27
